# Test results: publication PMC3934894, “Inhibition of Human and Yeast 20S Proteasome by Analogues of Trypsin Inhibitor SFTI-1” (PLoS ONE, 2014)
# Like-named read-outs stand apart in the source and are kept apart here. Peptide text beside a SMILES is read from it.
# Key:
# [1] = biological target: human 20S proteasome, chymotrypsin-like (ChT-L) activity (Homo sapiens, UniProt P28074); test: biochemical; conditions: for IC50: ChT-like Human 20S IC50, SDS-activated human 20S, [E] 2.7 nM, pH 8.1, 37°C, Suc-LLVY-AMC 52 µM
# Description: (§1) An assay buffer was composed of 50 mM Tris-HCl (pH 8.1) and 0.02% (w/v) SDS (exceptionally, T-L activity was measured in Tris buffer without SDS, that may trigger precipitation of substrates containing the guanidino group [21]). […] The SFTI-1 analogues were incubated with 20S proteasome in assay buffer at 37°C for 30 min. Reactions were performed in 96-well black BRAND plates (Germany). The final volume of the solution in each well was 200 µL. […] Proteasomal subsite activities were determined by monitoring the AMC liberation over time with a Fluorostar Omega (BMG Labtech, Germany) using excitation and emission wavelengths of 380 nm and 450 nm, respectively. […] Association constants Ka were measured as described previously [14] and calculated using a two-parameter fit model (using the GraFit software package).
# [2] = biological target: human 20S proteasome, caspase-like (C-L) activity (Homo sapiens, UniProt P28072); test: C-L activity of SDS-activated human 20S proteasome (Z-LLE-AMC); conditions: C-like Human 20S IC50, SDS-activated human 20S, pH 8.1, 37°C, Z-LLE-AMC 79 µM
# Description: as §1
# [3] = biological target: human 20S proteasome, trypsin-like (T-L) activity (Homo sapiens, UniProt Q99436); test: T-L activity of latent human 20S proteasome (Z-LLR-AMC, no SDS); conditions: T-like Human 20S IC50, latent human 20S, Tris buffer without SDS, pH 8.1, 37°C, Z-LLR-AMC 52 µM
# Description: (§2) The peptidase activities of 20S proteasome were assayed using fluorogenic tri- and tetra-peptides coupled at their C-termini with 7-amino-4-methylcoumarin group (AMC). The initial concentration of purified yeast 20S proteasome [E0] […] An assay buffer was composed of 50 mM Tris-HCl (pH 8.1) and 0.02% (w/v) SDS (exceptionally, T-L activity was measured in Tris buffer without SDS, that may trigger precipitation of substrates containing the guanidino group [21]). […] The SFTI-1 analogues were incubated with 20S proteasome in assay buffer at 37°C for 30 min. Reactions were performed in 96-well black BRAND plates (Germany). The final volume of the solution in each well was 200 µL. […] Proteasomal subsite activities were determined by monitoring the AMC liberation over time with a Fluorostar Omega (BMG Labtech, Germany) using excitation and emission wavelengths of 380 nm and 450 nm, respectively.
# [4] = biological target: yeast 20S proteasome, chymotrypsin-like (ChT-L) activity (Saccharomyces cerevisiae, UniProt P30656); test: ChT-L activity of SDS-activated yeast 20S proteasome (Suc-LLVY-AMC)
# Description: as §2
# [5] = ChT-like Yeast 20S IC50, SDS-activated yeast 20S, [E] 0.9 nM, pH 8.1, 37°C, 30 min incubation, Suc-LLVY-AMC 5.2 µM
SMILES,Ki [1] [µM],IC50 [1] [µM],IC50 [2] [µM],IC50 [3] [µM],IC50 [4] [µM],"IC50 [4, 5] [µM]",remaining activity at 100 µM ([4]; read-out: ChT-L activity remaining at about 100 µM) [%]
"CC[C@H](C)[C@@H]1NC(=O)[C@@H]2CCCN2C(=O)[C@H](CCCCN)NC(=O)[C@H](CC(C)C)NC(=O)[C@H](CO)NC(=O)[C@H](CCCNC(=N)N)NC(=O)[C@H]([C@@H](C)O)NC(=O)[C@@H](NC(=O)[C@H](CCCNC(=N)N)NC(=O)CN)CSSC[C@@H](C(=O)N[C@@H](Cc2ccccc2)C(=O)N2CCC[C@H]2C(=O)N[C@@H](CC(=O)O)C(=O)O)NC1=O [Analogue III] (HELM PEPTIDE1{G.R.C.T.R.S.L.K.P.I.C.F.P.D}$PEPTIDE1,PEPTIDE1,3:R3-11:R3$$$V2.0)",1.76,3.36,2.42,> 100,1.07,–,–
"CC[C@H](C)[C@@H]1NC(=O)[C@@H]2CCCN2C(=O)[C@H](CCCCN)NC(=O)[C@H](CC(C)C)NC(=O)[C@H](CO)NC(=O)[C@H](CCCCN)NC(=O)[C@H]([C@@H](C)O)NC(=O)[C@@H](NC(=O)[C@H](CCCNC(=N)N)NC(=O)CN)CSSC[C@@H](C(=O)N[C@@H](Cc2ccccc2)C(=O)N2CCC[C@H]2C(=O)N[C@@H](CC(=O)O)C(=O)O)NC1=O [Analogue II] (HELM PEPTIDE1{G.R.C.T.K.S.L.K.P.I.C.F.P.D}$PEPTIDE1,PEPTIDE1,3:R3-11:R3$$$V2.0)",1.23,2.66,6.74,> 100,–,2.15,–
"CC[C@H](C)[C@@H]1NC(=O)[C@@H]2CCCN2C(=O)[C@H]([C@@H](C)CC)NC(=O)[C@H](CCCNC(=N)N)NC(=O)[C@H](CO)NC(=O)[C@H](CCCCN)NC(=O)[C@H]([C@@H](C)O)NC(=O)[C@@H](NC(=O)[C@H](CCCNC(=N)N)NC(=O)CN)CSSC[C@@H](C(=O)N[C@@H](Cc2ccccc2)C(=O)N2CCC[C@H]2C(=O)N[C@@H](CC(=O)O)C(=O)O)NC1=O [Analogue IV] (HELM PEPTIDE1{G.R.C.T.K.S.R.I.P.I.C.F.P.D}$PEPTIDE1,PEPTIDE1,3:R3-11:R3$$$V2.0)",1.31,2.49,2.44,60.5,–,5.36,–
"CC[C@H](C)[C@@H]1NC(=O)[C@@H]2CCCN2C(=O)[C@H](C)NC(=O)[C@H](C)NC(=O)[C@H](CO)NC(=O)[C@H](CCCCN)NC(=O)[C@H]([C@@H](C)O)NC(=O)[C@@H](NC(=O)[C@H](CCCNC(=N)N)NC(=O)CN)CSSC[C@@H](C(=O)N[C@@H](Cc2ccccc2)C(=O)N2CCC[C@H]2C(=O)N[C@@H](CC(=O)O)C(=O)O)NC1=O [Analogue IX] (HELM PEPTIDE1{G.R.C.T.K.S.A.A.P.I.C.F.P.D}$PEPTIDE1,PEPTIDE1,3:R3-11:R3$$$V2.0)",–,> 100,> 100,62.1,–,> 100,≥ 70
CC[C@H](C)[C@@H]1NC(=O)[C@@H]2CCCN2C(=O)[C@@H]2CCCN2C(=O)[C@H]([C@@H](C)CC)NC(=O)[C@H](CO)NC(=O)[C@H](CCCCN)NC(=O)[C@H]([C@@H](C)O)NC(=O)[C@@H](NC(=O)[C@H](CCCNC(=N)N)NC(=O)CN)CSSC[C@@H](C(=O)N[C@@H](Cc2ccccc2)C(=O)N2CCC[C@H]2C(=O)N[C@@H](CC(=O)O)C(=O)O)NC1=O [Analogue I],27,51.6,58.2,> 100,–,52,–
"CC[C@H](C)[C@@H]1NC(=O)[C@@H]2CCCN2C(=O)[C@H](CCCCN)NC(=O)[C@H](CCCCN)NC(=O)[C@H](CO)NC(=O)[C@H](C)NC(=O)[C@H]([C@@H](C)O)NC(=O)[C@@H](NC(=O)[C@H](CCCNC(=N)N)NC(=O)CN)CSSC[C@@H](C(=O)N[C@@H](Cc2ccccc2)C(=O)N2CCC[C@H]2C(=O)N[C@@H](CC(=O)O)C(=O)O)NC1=O [Analogue VIII] (HELM PEPTIDE1{G.R.C.T.A.S.K.K.P.I.C.F.P.D}$PEPTIDE1,PEPTIDE1,3:R3-11:R3$$$V2.0)",2.99,5.8,5.37,> 100,8.82,–,–
